Data from PubChem BioAssay (NCI).
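In this assay, cells in 96-well plates receive the compound at five concentrations for 48 hours. Endpoints are linearly interpolated between the surrounding concentrations. TGI: concentration producing complete growth inhibition.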

Experiments:
Assay in all cases: inhibition of tumour cell growth, NCI panel, 48 h
A498 renal = tested on: A498 renal
ACHN renal = tested on: ACHN renal
HCT-116 colon = tested on: HCT-116 colon
HOP-62 NSCLC = tested on: HOP-62 NSCLC
HT29 colon = tested on: HT29 colon
K-562 leukemia = tested on: K-562 leukemia
MDA-MB-231 breast = tested on: MDA-MB-231 breast
OVCAR-4 ovarian = tested on: OVCAR-4 ovarian
OVCAR-8 ovarian = tested on: OVCAR-8 ovarian
PC-3 prostate = tested on: PC-3 prostate
SK-MEL-2 melanoma = tested on: SK-MEL-2 melanoma
SK-MEL-5 melanoma = tested on: SK-MEL-5 melanoma
UACC-62 melanoma = tested on: UACC-62 melanoma
COLO 205 colon = tested on: COLO 205 colon
MDA-N = tested on: MDA-N
RXF 393 renal = tested on: RXF 393 renal
SF-295 CNS = tested on: SF-295 CNS

| SMILES | TGI (A498 renal) [µM] | TGI (ACHN renal) [µM] | TGI (HCT-116 colon) [µM] | TGI (HOP-62 NSCLC) [µM] | TGI (HT29 colon) [µM] | TGI (K-562 leukemia) [µM] | TGI (MDA-MB-231 breast) [µM] | TGI (OVCAR-4 ovarian) [µM] | TGI (OVCAR-8 ovarian) [µM] | TGI (PC-3 prostate) [µM] | TGI (SK-MEL-2 melanoma) [µM] | TGI (SK-MEL-5 melanoma) [µM] | TGI (UACC-62 melanoma) [µM] | TGI (COLO 205 colon) [µM] | TGI (MDA-N) [µM] | TGI (RXF 393 renal) [µM] | TGI (SF-295 CNS) [µM] |
| --- | --- | --- | --- | --- | --- | --- | --- | --- | --- | --- | --- | --- | --- | --- | --- | --- | --- |
| NC(CCCCNC(=O)CNC(=O)OCc1ccccc1)C(=O)NC(CCCCNC(=O)CNC(=O)OCc1ccccc1)C(=O)NC(CCCCNC(=O)CNC(=O)OCc1ccccc1)C(=O)NC(CCCCNC(=O)CNC(=O)OCc1ccccc1)C(=O)NC(CCCCNC(=O)CNC(=O)OCc1ccccc1)C(=O)NC(CCCCNC(=O)CNC(=O)OCc1ccccc1)C(=O)O (configuration not stated) | > 75 | > 75 | > 75 | > 75 | > 75 | > 75 | > 75 | > 75 | > 75 | > 75 | > 75 | > 75 | > 75 | – | – | – | – |
| C[n+]1cccc2ccc(OC(=O)c3ccccc3)cc21 | > 100 | > 100 | > 100 | > 100 | > 100 | > 100 | – | > 100 | > 100 | – | > 100 | > 100 | > 100 | > 100 | > 100 | > 100 | > 100 |
| CC(=O)O[C@H]1CCn2c3c(c(C)c21)C(=O)C(N1CC1)=C(C)C3=O | – | > 10 | > 10 | > 10 | > 10 | > 10 | > 10 | > 10 | > 10 | > 10 | > 10 | 6.67 | > 10 | > 10 | > 10 | – | > 10 |
| Nc1ncnc2c1cnn2Cc1cn(COCC(O)CO)nn1 (configuration not stated) | > 100 | > 100 | > 100 | > 100 | > 100 | – | > 100 | > 100 | > 100 | > 100 | > 100 | > 100 | > 100 | > 100 | > 100 | – | > 100 |
| CCOc1ncn(-c2ccc(NC(=S)NC34CC5CC(CC(C5)C3)C4)cc2)n1 | – | – | > 100 | > 100 | > 100 | > 100 | > 100 | > 100 | 64.3 | > 100 | – | > 100 | > 100 | > 100 | > 100 | – | > 100 |
| C=C=C(Sc1ccccc1)C(C)(C)OC(C)=O | 42.6 | – | 27.7 | – | 37 | 52 | – | > 100 | 46.9 | – | 35 | 29.3 | 29.2 | 32.5 | – | 28.4 | 33.6 |
| CCOc1ccc(NCC2CC/C(=C\c3ccc(O)cc3)C2=O)cc1 (configuration not stated) | 38.9 | 31.2 | 23.6 | > 67.1 | 33 | > 100 | 38.4 | 31.5 | 34.4 | 30.7 | – | 33.8 | 37.7 | 28.6 | – | 32.7 | > 54.6 |
| COc1ccc(-c2cc(=O)c3cc4c(cc3[nH]2)OCO4)cc1 | > 100 | > 100 | > 100 | > 100 | > 100 | > 100 | – | > 100 | > 100 | – | > 100 | > 100 | > 100 | > 100 | – | > 100 | > 100 |
